{"source": "patent US9476064B2", "about": "“Neuro-progenitor produced from an SCNT-derived ES cell” (H. Bion Co., Ltd., priority 2003, dated 2016)", "test_system": "nucleus-transferred oocytes", "test": "Development of nucleus-transferred oocytes after reprogramming and chemical activation", "format": "cell-based, human", "settings": "then 2.0 mM 6-DMAP, reprogramming time 2 hour, G1.2 then SNUnt-2, 16 oocytes", "description": "Since a sperm-mediated activation, which is one of the major factors for a normal embryonic development, was absent in case of the nucleus-transferred oocyte obtained in Example 2, an artificial stimulus was needed instead. In order to determine the optimum conditions for artificial embryogenesis, therefore, nucleus-transferred oocytes were reprogrammed, activated and in vitro cultured under various conditions as shown in Tables 2 to 4.\nSuch nucleus-transferred oocytes were washed several times with the G1.2 medium, transferred to the G1.2 medium containing 2.0 mM 6-DMAP (Sigma Co., St. Louis, Mo., U.S.A.) and, then, cultured at 37° C., 5% CO2, 5% O2 and 90% N2 for 4 hours. After these activation steps, the nucleus-transferred oocytes were in vitro cultured under the same condition.", "data": [{"smiles": "C[C@H](CCC(=O)O)C[C@H](C)C[C@H](C)C(=O)/C=C(\\O)[C@H](C)C[C@H](C)C/C=C/[C@@H](C)[C@@H](O)[C@@H](C)[C@@H](O)C[C@@H]1CC[C@@](C)([C@H]2CC[C@@](C)([C@@H](C)O)O2)O1", "note": "[ionomycin]", "values": [{"measurement": "No. of nucleus-transferred oocytes developed to 2-cell stage", "setting": "5 μM", "result": 9}, {"measurement": "No. of nucleus-transferred oocytes developed to blastocyst", "setting": "5 μM", "result": 0}, {"measurement": "No. of nucleus-transferred oocytes developed to morula", "setting": "5 μM", "result": 0}, {"measurement": "No. of nucleus-transferred oocytes developed to 2-cell stage", "setting": "10 μM", "result": 12}, {"measurement": "No. of nucleus-transferred oocytes developed to blastocyst", "setting": "10 μM", "result": 0}, {"measurement": "No. of nucleus-transferred oocytes developed to morula", "setting": "10 μM", "result": 0}]}]}
